In patent US20090069443A1, “Sedative Effect-Imparting Agent And Sedative Perfume Composition Containing The Same” (Shiseido Co., Ltd., priority 2005, published 2009):
Entries after “also recorded” stand apart in the source; their conditions may differ.

test system: healthy adult females; assay: CNV (contingent negative variation) brain wave measurement of sedative effect; format: in vivo, human; details: 1 mass % solution in ethanol, inhaled from cotton pad below the nose; three to six healthy adult females; FIG. 1
Excerpt: Measured was fluctuation in the negative potential of the event-related potential, a type of brain wave, which is also called contingent negative variation (hereinafter, referred to as CNV). The fluctuation intensity of the earlier component of the CNV brain wave is reported to show a positive correlation with the level of consciousness such as attention or expectation, and thus, the CNV brain wave can be used for quantitative evaluation of the effect of a fragrance on the consciousness level (sedated/stimulated) (Torii S. et al., Contingent negative variation (CNV) and the psychological effects of odour. In Perfumery: The Psychology and Biology of Fragrance, Edited by Toller S. V. and Dodd G. H., pp. 107-120, Chapman and Hall, London (1998)).
In the present invention, electrodes were adhered to the […] (Cz) and the left ear (A1) of a subject, and the voltage between the electrodes was measured with an electroencephalograph. The subject was made to listen to a click sound via headphone and push a switch in hand in response to a light-emitting diode flashing few seconds after the click sound, and the CNV brain wave was determined during the operation. In the test with fragrance, a perfume composition was allowed to penetrate into a square cotton pad of approximately 0.5 0.5 cm in size; the cotton pad was placed below the nose; and the subject was allowed to inhale the fragrance together with normal breathing during the series of operations above. […] The CNV brain waves were measured 30 times with and without fragrance respectively, and the fragrance effect was evaluated by comparing the integrated values of the earlier component of the CNV brain wave 400 to 1,000 ms after the click.
o-dimethoxybenzene (o-DMB), m-dimethoxybenzene (m-DMB), and p-dimethoxybenzene (p-DMB) were dissolved respectively in ethanol, to give 1 mass % solutions, and the effect thereof on CNV was measured according to the test method as above. […]

Row | Structure (SMILES) | sedative effect (effect on CNV)
1 | COc1ccccc1OC [o-dimethoxybenzene] | favorable effect that leads the subject to sedative direction; also recorded: particularly favorable sedative effect
2 | COc1ccc(OC)cc1 [p-dimethoxybenzene] | favorable effect that leads the subject to sedative direction
3 | COc1cccc(OC)c1 [m-dimethoxybenzene] | favorable effect that leads the subject to sedative direction; also recorded: particularly favorable sedative effect
